Reference: patent US20140329863A1 (priority 2011, published 2014)
Where two headings read alike, the source gives them in different places.

Experiments:
Binding in mouse plasma = conditions: for Percentage binding, Mouse plasma, 1 μM / Unbound (%), Mouse Plasma: 1 μM; for Unbound (%), Mouse Plasma: mean ± SD, n = 3 (warfarin n = 2)
CYP3A4 = target: T1, CYP3A4 (Homo sapiens, UniProt P08684); experiment: CYP phenotyping in human liver microsomes, ketoconazole; format: in vitro ADME; conditions: for CYP Involvement: CYP3A4, NADPH + Ketoconazole; for % Disappearance / Measured Conc. / Δ % Disappearance: reversible incubation condition, NADPH + Ketoconazole
T1 construct: tissue BD Biosciences; host or cells: pooled human liver microsomes

[1] = tested on: MDCK-MDR^1 cells (P-glycoprotein); experiment: Bidirectional MDCK-MDR1 cell permeability; format: in vitro ADME, canine
Procedure: MDCK-MDR^1 cells were grown to confluence for 5-10 days on 1-μm filters in 24-well plates {Hilgers, 1990}. Aliquots of DMSO stocks were diluted into Hank's balanced salt solution (HBSS), pH 7.4, containing […] to give 10-μM solute concentration. The solute containing donor solutions were transferred to either the apical or basolateral chamber of the permeability diffusion apparatus. Receiver solutions consisted of HBSS (pH 7.4) containing 25 mM HEPES+0.05% PS80. Sequential samples of transported solute were taken at 20-min intervals using an automated liquid handling platform. The concentration of transported solute during each sampling interval was determined by HPLC/UV/MS. Permeability coefficients were calculated for each sampling interval. The average and standard deviation from the intervals are reported. Mass balance in the system was ascertained by comparing the sum of total transported solute and remaining donor solute with the starting mass of solute and is expressed as a percentage of donor solute at time zero. […] In the event of mass balance less than 70%, the cell monolayers were extracted with ACN and analyzed for the solute of interest. Determinations were conducted in duplicate.

in vitro = conditions: mouse, 20% brain homogenate
CYP2C9 = target: T2, CYP2C9 (Homo sapiens, UniProt P11712); experiment: CYP phenotyping in human liver microsomes, sulphaphenazol; format: in vitro ADME; conditions: for CYP Involvement: CYP2C9, NADPH + Sulphaphenazol; for % Disappearance / Measured Conc. / Δ % Disappearance: reversible incubation condition, NADPH + Sulphaphenazol
T2 construct: tissue BD Biosciences; host or cells: pooled human liver microsomes

[2] = tested on: PrP^Sc in dividing ScN2a-cl3 cells; format: cell-based, mouse
CYP2D6 = target: T3, CYP2D6 (Homo sapiens, UniProt P10635); experiment: CYP phenotyping in human liver microsomes, quinidine; format: in vitro ADME; conditions: for CYP Involvement: CYP2D6, NADPH + Quinidine; for % Disappearance / Measured Conc. / Δ % Disappearance: reversible incubation condition, NADPH + Quinidine
T3 construct: tissue BD Biosciences; host or cells: pooled human liver microsomes

[3] = CYP phenotyping in human liver microsomes, no inhibitor (negative control, maximum metabolism); format: in vitro ADME
[4] = Fraction unbound in cell-culture media; format: in vitro ADME; conditions: 1 μM; mean ± SD, n = 3
[5] = 1 and 10 μM
ScN2a-c13 cells = experiment: cells; format: cell-based; conditions: Mus musculus; N=3; read-out: EC50 by calcein for cell viability
[6] = Table 29, 2-AMT analogs tested for potency, usually n = 3 or more
[7] = irreversible incubation condition, maximum metabolism, NADPH/No Inhibitor
[8] = irreversible incubation condition, negative control, No NADPH/No Inhibitor
[9] = reversible incubation condition, maximum metabolism, NADPH/No Inhibitor
[10] = reversible incubation condition, negative control, No NADPH/No Inhibitor

T2 sequence (P11712 whole entry): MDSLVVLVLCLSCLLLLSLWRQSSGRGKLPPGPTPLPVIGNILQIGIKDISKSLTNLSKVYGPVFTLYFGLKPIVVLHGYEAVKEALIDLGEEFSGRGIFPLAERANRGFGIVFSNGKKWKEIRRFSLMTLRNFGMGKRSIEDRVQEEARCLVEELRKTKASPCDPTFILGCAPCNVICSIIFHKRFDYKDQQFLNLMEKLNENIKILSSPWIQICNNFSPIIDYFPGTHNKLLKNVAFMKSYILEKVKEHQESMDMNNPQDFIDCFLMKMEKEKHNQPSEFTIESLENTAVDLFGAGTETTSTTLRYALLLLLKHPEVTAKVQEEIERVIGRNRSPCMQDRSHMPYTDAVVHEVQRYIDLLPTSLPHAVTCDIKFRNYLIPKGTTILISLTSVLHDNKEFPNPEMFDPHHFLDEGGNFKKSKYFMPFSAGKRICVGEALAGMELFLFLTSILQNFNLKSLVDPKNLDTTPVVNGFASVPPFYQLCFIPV
T3 sequence (P10635 whole entry): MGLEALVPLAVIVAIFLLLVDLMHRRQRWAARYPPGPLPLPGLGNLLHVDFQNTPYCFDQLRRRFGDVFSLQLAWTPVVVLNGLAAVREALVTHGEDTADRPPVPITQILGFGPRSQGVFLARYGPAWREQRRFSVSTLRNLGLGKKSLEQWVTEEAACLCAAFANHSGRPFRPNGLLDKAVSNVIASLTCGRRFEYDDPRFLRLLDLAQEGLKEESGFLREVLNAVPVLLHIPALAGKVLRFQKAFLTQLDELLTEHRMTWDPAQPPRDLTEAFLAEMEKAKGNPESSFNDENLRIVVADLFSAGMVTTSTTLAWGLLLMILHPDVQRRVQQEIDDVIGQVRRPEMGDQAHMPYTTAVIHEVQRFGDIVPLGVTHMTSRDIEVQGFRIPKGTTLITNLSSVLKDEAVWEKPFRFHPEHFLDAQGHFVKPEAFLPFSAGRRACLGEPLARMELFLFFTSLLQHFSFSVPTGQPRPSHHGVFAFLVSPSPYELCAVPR
T1 sequence (P08684 whole entry): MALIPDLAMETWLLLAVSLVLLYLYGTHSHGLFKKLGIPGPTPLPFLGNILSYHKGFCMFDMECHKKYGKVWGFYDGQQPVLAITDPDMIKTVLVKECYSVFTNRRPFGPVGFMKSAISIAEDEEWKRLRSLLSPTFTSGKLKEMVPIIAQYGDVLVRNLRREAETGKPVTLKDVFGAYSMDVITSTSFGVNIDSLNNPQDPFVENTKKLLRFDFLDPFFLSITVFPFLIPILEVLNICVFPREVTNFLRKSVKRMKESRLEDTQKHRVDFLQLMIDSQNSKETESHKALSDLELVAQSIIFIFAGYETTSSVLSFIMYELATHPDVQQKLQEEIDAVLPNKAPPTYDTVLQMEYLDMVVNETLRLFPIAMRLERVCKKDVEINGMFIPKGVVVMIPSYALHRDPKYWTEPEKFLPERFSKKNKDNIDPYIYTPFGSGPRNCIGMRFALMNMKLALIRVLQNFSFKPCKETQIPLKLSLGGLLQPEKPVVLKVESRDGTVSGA

With `Cc1cccc(Nc2nc(-c3ccc(-c4ccccc4)cc3)cs2)n1` [IND24, (4-Biphenyl-4-yl-thiazol-2-yl)-(6-methyl-pyridin-2-yl)-amine] the “Percentage binding, Mouse plasma, 1 μM” value (Binding in mouse plasma) was 93.4 ± 1.55%, the “Unbound (%), Mouse Plasma” value (Binding in mouse plasma) was 6.63 ± 1.55% and the “Percentage binding, Mouse plasma, 10 μM” value (Binding in mouse plasma) was 95.8 ± 0.14%. The “Percentage binding, Rat plasma, 1 μM” value (Binding in rat plasma) was 93.4 ± 2.13%, the “Percentage binding, Rat plasma, 10 μM” value (Binding in rat plasma) was 94.0 ± 1.04% and the “CYP Involvement” value (CYP3A4) was “Unlikely (unlikely for values <5)”. For the same molecule, the “% Disappearance” value (CYP3A4) was 15%, the “Measured Conc.” value (CYP3A4) was 0.557 µM and the “Δ % Disappearance” value (CYP3A4) was 0 (−15) %. The “P-gp substrate status, absorptive vs secretory permeability” value [1] was “not substrates”, the fraction unbound (in vitro) was 0.07 to 0.08 and the “CYP Involvement” value (CYP2C9) was “Unlikely (unlikely for values <5)”. For the same molecule, the “% Disappearance” value (CYP2C9) was 14%, the “Measured Conc.” value (CYP2C9) was 0.566 µM and the “Δ % Disappearance” value (CYP2C9) was 0 (−14) %. The EC50 ([2]; AMT analogs tested for potency) was 1270 nM, the EC50 [2, 6] was 1270 nM and the “CYP Involvement” value (CYP2D6) was “Unlikely (unlikely for values <5)”. For the same molecule, the “% Disappearance” value (CYP2D6) was 15%, the “Measured Conc.” value (CYP2D6) was 0.555 µM and the “Δ % Disappearance” value (CYP2D6) was 0 (−15) %. The “% Disappearance” value [3, 7] was 0 (−18) %, the “Measured Conc.” value [3, 7] was 0.733 µM and the “Δ % Disappearance” value [3, 7] was 0%. For the same molecule, the “Measured Conc.” value [3, 8] was 0.622 µM, the “% Disappearance” value [3, 9] was 0% and the “Measured Conc.” value [3, 9] was 0.655 µM. For the same molecule, the “Δ % Disappearance” value [3, 9] was 0%, the “% Disappearance” value [3, 10] was 0% and the “Measured Conc.” value [3, 10] was 0.654 µM. For the same molecule, the “Percentage binding, Dog plasma, 1 μM” value (Binding in dog plasma) was 95.1 ± 1.38%, the “Percentage binding, Dog plasma, 10 μM” value (Binding in dog plasma) was 95.0 ± 0.32% and the “Unbound (%), Cell-culture Media” value [4] was 25.7 ± 4.93%. For the same molecule, the brain tissue binding [5] was 92-93% and the EC50 (ScN2a-c13 cells) was > 10 µM.

Molecule `Cc1ccc(Nc2nc(-c3cc(-c4ccccc4)no3)cs2)nc1` [IND33, (5-Methyl-pyridin-2-yl)-[4-(3-phenyl-isoxazol-5-yl)-thiazol-2-yl]-amine] has an EC50 ([2]; AMT analogs tested for potency) of 940 nM and an EC50 [2, 6] of 940 nM.

Work on `COc1ccc(-c2csc(Nc3ccc4ccccc4n3)n2)cc1OC` [IND47, [4-(3,4-Dimethoxy-phenyl)-thiazol-2-yl]-quinolin-2-yl-amine] yielded an EC50 ([2]; AMT analogs tested for potency) of 426 nM and an EC50 [2, 6] of 426 nM.

In the case of `Cc1ccnc(Nc2nc(-c3ccncc3)cs2)c1` [IND52, (4-Methyl-pyridin-2-yl)-(4-pyridin-4-yl-thiazol-2-yl)-amine], the EC50 ([2]; AMT analogs tested for potency) is reported as 4950 nM, the EC50 [2, 6] is reported as 4950 nM and the EC50 (ScN2a-c13 cells) is reported as > 10 µM.

For `Cc1ccnc(Nc2nc(-c3ccc(-c4ccccn4)s3)cs2)c1` [IND81, (4-Methyl-pyridin-2-yl)-[4-(5-pyridin-2-yl-thiophen-2-yl)-thiazol-2-yl]-amine], the “Percentage binding, Mouse plasma, 1 μM” value (Binding in mouse plasma) was 93.5 ± 1.10%, the “Unbound (%), Mouse Plasma” value (Binding in mouse plasma) was 6.48 ± 1.10% and the “Percentage binding, Mouse plasma, 10 μM” value (Binding in mouse plasma) was 96.0 ± 0.04%. For the same molecule, the “Percentage binding, Rat plasma, 1 μM” value (Binding in rat plasma) was 94.2 ± 0.48%, the “Percentage binding, Rat plasma, 10 μM” value (Binding in rat plasma) was 95.5 ± 0.66% and the “CYP Involvement” value (CYP3A4) was “Likely (likely for values >10)”. For the same molecule, the “% Disappearance” value (CYP3A4) was 51%, the “Measured Conc.” value (CYP3A4) was 0.324 µM and the “Δ % Disappearance” value (CYP3A4) was 15%. The “P-gp substrate status, absorptive vs secretory permeability” value [1] was “not substrates”, the fraction unbound (in vitro) was 0.09 and the “CYP Involvement” value (CYP2C9) was “Unlikely (unlikely for values <5)”. The “% Disappearance” value (CYP2C9) was 64%, the “Measured Conc.” value (CYP2C9) was 0.238 µM and the “Δ % Disappearance” value (CYP2C9) was 1.8%. The “CYP Involvement” value (CYP2D6) was “Likely (likely for values >10)”, the “% Disappearance” value (CYP2D6) was 55% and the “Measured Conc.” value (CYP2D6) was 0.300 µM. For the same molecule, the “Δ % Disappearance” value (CYP2D6) was 11%, the “% Disappearance” value [3, 7] was 84% and the “Measured Conc.” value [3, 7] was 0.143 µM. The “Δ % Disappearance” value [3, 7] was 0%, the “% Disappearance” value [3, 8] was 0% and the “Measured Conc.” value [3, 8] was 0.899 µM. For the same molecule, the “% Disappearance” value [3, 9] was 66%, the “Measured Conc.” value [3, 9] was 0.226 µM and the “Δ % Disappearance” value [3, 9] was 0%. For the same molecule, the “% Disappearance” value [3, 10] was 0%, the “Measured Conc.” value [3, 10] was 0.664 µM and the “Percentage binding, Dog plasma, 1 μM” value (Binding in dog plasma) was 94.4 ± 1.88%. The “Percentage binding, Dog plasma, 10 μM” value (Binding in dog plasma) was 94.7 ± 1.03%, the “Unbound (%), Cell-culture Media” value [4] was 23.2 ± 2.68% and the brain tissue binding [5] was ~90%. For the same molecule, the EC50 (ScN2a-c13 cells) was > 10 µM.

For `c1ccc2cc(Nc3nc(-c4ccncc4)cs3)ncc2c1` [IND85, Isoquinolin-3-yl-(4-pyridin-4-yl-thiazol-2-yl)-amine], the EC50 ([2]; AMT analogs tested for potency) was 307 nM and the EC50 [2, 6] was 307 nM.
